# How the values were obtained:
# tryptophanase = conditions: enzymatic activity divided by OD600; 37° C., 48 hours anaerobic culture; extract 100 μg/mL, FOS 1 mg/mL, chloramphenicol 10 or 40 μg/mL (FIG. 4)
# Protocol: In order to quickly evaluate the effect of the candidate materials on improvement of intestinal microflora, culturing was performed using a 96-well plate. 10 μL of the culture medium of intestinal microorganisms maintained stably through anaerobic continuous culturing was inoculated to 1 mL of a medium for investigation described in Table 3. Culturing was performed at 37° C. for 48 hours by treating an extract of Codonopsis lanceolata for evaluating the effect of improving intestinal microflora at a concentration of 100 μg/mL (0.2% DMSO). […] At the same time, chloramphenicol (10 or 40 μg/mL) which is an antibiotic known to worsen intestinal microflora was used to compare the effect of improving intestinal microflora. Then, the effect of improving intestinal microflora was investigated by measuring the growth of intestinal microorganisms, the enzymatic activity of harmful bacteria, the content of short-chain fatty acids, etc. using the culture medium of microorganisms.
# The culture medium of intestinal microorganisms incubated and maintained with a culture medium in a fermenter under an anaerobic condition. […] The supernatant was taken and absorbance was measured at 550 nm. Then, relative tryptophanase activity (%) was calculated by dividing the enzymatic activity by the degree of growth of intestinal microorganisms (OD600).
# [1] = tested on: intestinal microorganisms; test: Measurement of growth of intestinal microorganisms (absorbance at 600 nm); assay type: cell-based, human; conditions: normal medium condition (FIG. 1), 37° C., 48 hours, extract 100 μg/mL, FOS 1 mg/mL, chloramphenicol 10 or 40 μg/mL
# [2] = tested on: intestinal microorganisms; test: Gas chromatographic analysis of content of short-chain fatty acids in culture medium of intestinal microorganisms; assay type: cell-based, human; conditions: 48 hours, extract 100 μg/mL, FOS 1 mg/mL, chloramphenicol 10 or 40 μg/mL; for Content (mM) of short-chain fatty acids: non-treated control 18.6 mM
# Protocol: The analysis sample was subjected to centrifugation of the 96-well plate at 3500 rpm for 10 minutes. 400 μL of the obtained supernatant was stabilized by adding 20 μL of 50% sulfuric acid and then 40 μL of an internal standard (1% 2-methylpentanoic acid) was added. Then, after adding 400 μL of ethyl ether, the mixture was mixed for about 2 minutes by vortexing. The sample was centrifuged and the top ethyl ether layer was recovered and subjected to GC analysis. The analysis was performed using Bruker 450-GC and the Supelco's Nukol Fused silica capillary column ([…]×0.25 mm×0.25 μm). The analysis condition is described in Table 4.
# β-glucuronidase = conditions: enzymatic activity divided by OD600; 37° C., 48 hours anaerobic culture; extract 100 μg/mL, FOS 1 mg/mL, chloramphenicol 10 or 40 μg/mL (FIG. 3)
# Protocol: The samples were transfered to an anaerobic workstation within 30 minutes and treated quickly. After adding glycerol as an additive for storage at low temperature, the mixtures were stored in an ultra-low temperature freezer with 40 mL each and were used as samples for culturing of intestinal microorganisms.
# Each bioreactor containing 300 mL of a medium was sterilized and maintained at an anaerobic condition by injecting nitrogen gas. Then, the sample of intestinal microorganisms prepared in Test Example 1 was inoculated. After conducting batch culturing for 24 hours, continuous culturing was performed using a medium of the same composition. Total residence time was 24 hours. Culturing temperature was maintained at 37° C. and pH was maintained at 5.5 using a 1 N hydrochloric acid solution and a 1 N sodium hydroxide solution. […] The culturing condition was maintained for at least 30 days. […]
# The culture medium of intestinal microorganisms incubated and maintained with a culture medium in a fermenter under an anaerobic condition. […] The supernatant was taken and absorbance was measured at 405 nm. Then, relative β-glucuronidase activity (%) was calculated by dividing the enzymatic activity by the degree of growth of intestinal microorganisms (OD600).
compound,measurement,setting,value
O=C(N[C@H](CO)[C@H](O)c1ccc([N+](=O)[O-])cc1)C(Cl)Cl [chloramphenicol],relative tryptophanase activity,tryptophanase,increased tryptophanase activity
same,growth of intestinal microorganisms,[1],decreased growth of intestinal microorganisms
same,Composition of short-chain fatty acids (%) Acetate,[2],54.36 ± 3.23%
same,Composition of short-chain fatty acids (%) Butyrate,[2],20.24 ± 0.64%
same,Composition of short-chain fatty acids (%) Propionate,[2],25.40 ± 0.89%
same,Content (mM) of short-chain fatty acids,[2],2.03 mM
same,Content (mM) of short-chain fatty acids,[2]; listed as Antibiotic (chloramphenicol),2.03 ± 0.06 mM
same,relative β-glucuronidase activity,β-glucuronidase,increased β-glucuronidase activity
